Values of other authors in patent publication US9125411B2, “UV absorbers for reducing the E/Z isomerization of pesticides” (BASF SE, priority 2010, dated 2015).

Substance: metaflumizone
- pesticidal activity of the E isomer relative to the Z isomer (E isomer higher than Z isomer): up to 10 fold
- change of activity by irradiation by light (Takagi et al., Veterinary Parasitology, 2007): loses activity
